Data as given in PubChem BioAssay AID1963976 (Molecular Pharmacology Branch, DTP, NCI, 2024).
pIC50: −log10 of the molar value.

Tested on: 435261-313-R-J1-PDC tumor spheroid viability
Assay: Anticancer human tumor 435261-313-R-J1-PDC patient-derived colon adenocarcinoma cell line growth inhibition [PI3K]
Conditions: spheroids with HUVEC and MSC; for pIC50: curve of first compound; for viability, T/C: stronger effect = lower value
Outline: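 Complex 3D spheroids (cancer cells + endothelial HUVEC + mesenchymal stem cells); drug pairs of targeted agent x inavolisib/alpelisib/duvelisib/copanlisib; half-log series from ~Cmax, max 10 microM if Cmax unknown; endpoint viability.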

[1] = second compound 0.00316 µM, first compound 0.0316 µM
[2] = second compound 0.00316 µM, first compound 0.1 µM
[3] = second compound 0.00316 µM, first compound 0.316 µM
[4] = second compound 0.00316 µM, first compound 1 µM
[5] = second compound 0.00316 µM, first compound 3.16 µM
[6] = second compound 0.00316 µM, first compound 10 µM
[7] = second compound 0.01 µM, first compound 0.0316 µM
[8] = second compound 0.01 µM, first compound 0.1 µM
[9] = second compound 0.01 µM, first compound 0.316 µM
[10] = second compound 0.01 µM, first compound 1 µM
[11] = second compound 0.01 µM, first compound 3.16 µM
[12] = second compound 0.01 µM, first compound 10 µM
[13] = second compound 0.0316 µM, first compound 0.0316 µM
[14] = second compound 0.0316 µM, first compound 0.1 µM
[15] = second compound 0.0316 µM, first compound 0.316 µM
[16] = second compound 0.0316 µM, first compound 1 µM
[17] = second compound 0.0316 µM, first compound 3.16 µM
[18] = second compound 0.0316 µM, first compound 10 µM
[19] = second compound 0.1 µM, first compound 0.0316 µM
[20] = second compound 0.1 µM, first compound 0.1 µM
[21] = second compound 0.1 µM, first compound 0.316 µM
[22] = second compound 0.1 µM, first compound 1 µM
[23] = second compound 0.1 µM, first compound 3.16 µM
[24] = second compound 0.1 µM, first compound 10 µM
[25] = second compound 0.316 µM, first compound 0.0316 µM
[26] = second compound 0.316 µM, first compound 0.1 µM
[27] = second compound 0.316 µM, first compound 0.316 µM
[28] = second compound 0.316 µM, first compound 1 µM
[29] = second compound 0.316 µM, first compound 3.16 µM
[30] = second compound 0.316 µM, first compound 10 µM
[31] = second compound 1 µM, first compound 0.0316 µM
[32] = second compound 1 µM, first compound 0.1 µM
[33] = second compound 1 µM, first compound 0.316 µM
[34] = second compound 1 µM, first compound 1 µM
[35] = second compound 1 µM, first compound 3.16 µM
[36] = second compound 1 µM, first compound 10 µM
[37] = second compound 0.00316 µM, first compound 0.00316 µM
[38] = second compound 0.00316 µM, first compound 0.01 µM
[39] = second compound 0.01 µM, first compound 0.00316 µM
[40] = second compound 0.01 µM, first compound 0.01 µM
[41] = second compound 0.0316 µM, first compound 0.00316 µM
[42] = second compound 0.0316 µM, first compound 0.01 µM
[43] = second compound 0.1 µM, first compound 0.00316 µM
[44] = second compound 0.1 µM, first compound 0.01 µM
[45] = second compound 0.316 µM, first compound 0.00316 µM
[46] = second compound 0.316 µM, first compound 0.01 µM
[47] = second compound 1 µM, first compound 0.00316 µM
[48] = second compound 1 µM, first compound 0.01 µM
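Also: spheroids exposed to compounds for 7 days.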

`CC1(C)CCC(Nc2ncc(C(F)(F)F)c(-c3c[nH]c4c(P(C)(C)=O)c(C#N)ccc34)n2)CN1` (stereo not drawn) + CC(Nc1ccc2c(c1)OCCn1cc(N3C(=O)OCC3C(F)F)nc1-2)C(N)=O was tested, and the pIC50 (second compound 0.00316 µM) was 5.92, the pIC50 (second compound 0.01 µM) was 5.98 and the pIC50 (second compound 0.0316 µM) was greater than 7.50. For the same compound, the pIC50 (second compound 0.1 µM) was greater than 7.50, the pIC50 (second compound 0.316 µM) was greater than 7.50 and the pIC50 (second compound 1 µM) was greater than 7.50. The viability, T/C [1] was 46.7%, the viability, T/C [2] was 58.8% and the viability, T/C [3] was 43.8%. It also gave a viability, T/C [4] of 58.8%, a viability, T/C [5] of 39.4% and a viability, T/C [6] of 0.93%. It also gave a viability, T/C [7] of 52%, a viability, T/C [8] of 53.4% and a viability, T/C [9] of 48%. The viability, T/C [10] was 51.3%, the viability, T/C [11] was 38.6% and the viability, T/C [12] was 0.98%. The viability, T/C [13] was 44.4%, the viability, T/C [14] was 47.9% and the viability, T/C [15] was 38.8%. It also gave a viability, T/C [16] of 40.8%, a viability, T/C [17] of 33.4% and a viability, T/C [18] of 0.99%. For the same compound, the viability, T/C [19] was 30%, the viability, T/C [20] was 31.6% and the viability, T/C [21] was 27.2%. It also gave a viability, T/C [22] of 30.2%, a viability, T/C [23] of 24.5% and a viability, T/C [24] of 0.45%. For the same compound, the viability, T/C [25] was 24.2%, the viability, T/C [26] was 22.8% and the viability, T/C [27] was 20.1%. For the same compound, the viability, T/C [28] was 20.2%, the viability, T/C [29] was 15% and the viability, T/C [30] was 0.63%. The viability, T/C [31] was 20.9%, the viability, T/C [32] was 15% and the viability, T/C [33] was 17%. The viability, T/C [34] was 18.8%, the viability, T/C [35] was 10.4% and the viability, T/C [36] was 0.26%.

Work on `CC(C)n1nc(-c2ccc3oc(N)nc3c2)c2c(N)ncnc21` + COc1c(OCCCN2CCOCC2)ccc2c3n(c(=NC(=O)c4cnc(N)nc4)nc12)CCN3 yielded a pIC50 (second compound 0.00316 µM) of 7.93, a pIC50 (second compound 0.01 µM) of 8.87 and a pIC50 (second compound 0.0316 µM) greater than 9.50. For the same compound, the pIC50 (second compound 0.1 µM) was greater than 9.50, the pIC50 (second compound 0.316 µM) was greater than 9.50 and the pIC50 (second compound 1 µM) was greater than 9.50. It also gave a viability, T/C (second compound 0.00316 µM, first compound 0.000316 µM) of 66.9%, a viability, T/C (second compound 0.00316 µM, first compound 0.001 µM) of 47.5% and a viability, T/C [37] of 74.6%. For the same compound, the viability, T/C [38] was 51.4%, the viability, T/C [1] was 27.4% and the viability, T/C [2] was 12.1%. It also gave a viability, T/C (second compound 0.01 µM, first compound 0.000316 µM) of 48.1%, a viability, T/C (second compound 0.01 µM, first compound 0.001 µM) of 56.3% and a viability, T/C [39] of 46.8%. It also gave a viability, T/C [40] of 32.2%, a viability, T/C [7] of 21.7% and a viability, T/C [8] of 10.8%. For the same compound, the viability, T/C (second compound 0.0316 µM, first compound 0.000316 µM) was 25.7%, the viability, T/C (second compound 0.0316 µM, first compound 0.001 µM) was 22.9% and the viability, T/C [41] was 24%. The viability, T/C [42] was 19.4%, the viability, T/C [13] was 16.4% and the viability, T/C [14] was 9.19%. For the same compound, the viability, T/C (second compound 0.1 µM, first compound 0.000316 µM) was 16.6%, the viability, T/C (second compound 0.1 µM, first compound 0.001 µM) was 14.2% and the viability, T/C [43] was 14%. The viability, T/C [44] was 13.6%, the viability, T/C [19] was 10.3% and the viability, T/C [20] was 5.04%. For the same compound, the viability, T/C (second compound 0.316 µM, first compound 0.000316 µM) was 8.4%, the viability, T/C (second compound 0.316 µM, first compound 0.001 µM) was 7.74% and the viability, T/C [45] was 6.9%. For the same compound, the viability, T/C [46] was 6.3%, the viability, T/C [25] was 4.52% and the viability, T/C [26] was 2.1%. It also gave a viability, T/C (second compound 1 µM, first compound 0.000316 µM) of 4.2%, a viability, T/C (second compound 1 µM, first compound 0.001 µM) of 4.04% and a viability, T/C [47] of 3.72%. It also gave a viability, T/C [48] of 3.28%, a viability, T/C [31] of 3.57% and a viability, T/C [32] of 2.22%.

`CCCS(=O)(=O)Nc1ccc(F)c(C(=O)c2c[nH]c3ncc(-c4ccc(Cl)cc4)cc23)c1F` + COc1c(OCCCN2CCOCC2)ccc2c3n(c(=NC(=O)c4cnc(N)nc4)nc12)CCN3 was tested, and the pIC50 (second compound 0.00316 µM) was 5.34, the pIC50 (second compound 0.01 µM) was 5.52 and the pIC50 (second compound 0.0316 µM) was greater than 7.50. For the same compound, the pIC50 (second compound 0.1 µM) was greater than 7.50, the pIC50 (second compound 0.316 µM) was greater than 7.50 and the pIC50 (second compound 1 µM) was greater than 7.50. For the same compound, the viability, T/C [1] was 66.6%, the viability, T/C [2] was 77.1% and the viability, T/C [3] was 103%. For the same compound, the viability, T/C [4] was 83.7%, the viability, T/C [5] was 72.4% and the viability, T/C [6] was 4.06%. For the same compound, the viability, T/C [7] was 46.7%, the viability, T/C [8] was 71.3% and the viability, T/C [9] was 70.8%. For the same compound, the viability, T/C [10] was 91.2%, the viability, T/C [11] was 49.1% and the viability, T/C [12] was 4.19%. It also gave a viability, T/C [13] of 25.7%, a viability, T/C [14] of 40.4% and a viability, T/C [15] of 27.9%. For the same compound, the viability, T/C [16] was 33.9%, the viability, T/C [17] was 31.7% and the viability, T/C [18] was 5.4%. The viability, T/C [19] was 24.7%, the viability, T/C [20] was 18.1% and the viability, T/C [21] was 22%. It also gave a viability, T/C [22] of 26.3%, a viability, T/C [23] of 22.1% and a viability, T/C [24] of 4.42%. The viability, T/C [25] was 7.13%, the viability, T/C [26] was 9.16% and the viability, T/C [27] was 10.6%. The viability, T/C [28] was 13.5%, the viability, T/C [29] was 13.9% and the viability, T/C [30] was 4.25%. It also gave a viability, T/C [31] of 4.51%, a viability, T/C [32] of 3.63% and a viability, T/C [33] of 4.99%. It also gave a viability, T/C [34] of 5.37%, a viability, T/C [35] of 7.06% and a viability, T/C [36] of 2.69%.

`CCN1CCN(Cc2ccc(Nc3ncc(F)c(-c4cc(F)c5nc(C)n(C(C)C)c5c4)n3)nc2)CC1` + CC(Nc1ccc2c(c1)OCCn1cc(N3C(=O)OCC3C(F)F)nc1-2)C(N)=O was tested, and the pIC50 (second compound 0.00316 µM) was 6.91, the pIC50 (second compound 0.01 µM) was 7.51 and the pIC50 (second compound 0.0316 µM) was 7.69. The pIC50 (second compound 0.1 µM) was greater than 8.50, the pIC50 (second compound 0.316 µM) was greater than 8.50 and the pIC50 (second compound 1 µM) was greater than 8.50. It also gave a viability, T/C [37] of 94%, a viability, T/C [38] of 71.5% and a viability, T/C [1] of 53.1%. The viability, T/C [2] was 66.9%, the viability, T/C [3] was 37% and the viability, T/C [4] was 33.9%. The viability, T/C [39] was 71.5%, the viability, T/C [40] was 103% and the viability, T/C [7] was 49.1%. It also gave a viability, T/C [8] of 46.4%, a viability, T/C [9] of 33.8% and a viability, T/C [10] of 33.8%. The viability, T/C [41] was 73.6%, the viability, T/C [42] was 58.5% and the viability, T/C [13] was 47.3%. It also gave a viability, T/C [14] of 29.1%, a viability, T/C [15] of 28.3% and a viability, T/C [16] of 30.5%. The viability, T/C [43] was 37.7%, the viability, T/C [44] was 20.3% and the viability, T/C [19] was 25.9%. For the same compound, the viability, T/C [20] was 21.1%, the viability, T/C [21] was 19.8% and the viability, T/C [22] was 25.3%. For the same compound, the viability, T/C [45] was 17.9%, the viability, T/C [46] was 20.8% and the viability, T/C [25] was 16.7%. The viability, T/C [26] was 16.8%, the viability, T/C [27] was 17.2% and the viability, T/C [28] was 16%. The viability, T/C [47] was 17.1%, the viability, T/C [48] was 15.3% and the viability, T/C [31] was 14%. It also gave a viability, T/C [32] of 15.2%, a viability, T/C [33] of 15.1% and a viability, T/C [34] of 13.4%.
